Experimental data as given in patent US20210038559A1, “CANNABINOIDS AND DERIVATIVES FOR PROMOTING IMMUNOGENICITY OF TUMOR AND INFECTED CELLS” (priority 2018, published 2021).
Where a name gives a salt, the structure may show the parent alone.

What follows are compounds tested on MHC-I expression by COLO 205 cells (assay: cells). Settings: not given.
Assay type: cell-based, human
Method: A panel of synthetic cannabinoids (Cayman Chemical, #9002891) was tested for MHC class I-inducing capability in COLO 205 cells as described above. COLO 205 cells were treated with the compounds at a concentration of 35 μM and evaluated for cell surface MHC class I expression after 48 hours. Cells were harvested, stained with MHC-I mAb W6/32 (Thermo Fisher). MHC-I expression was determined by flow cytometry.

| Compound | Induction Fold |
| --- | --- |
| CCCCCn1cc(C(=O)c2cc(C)cc3ccccc23)c2ccccc21 [Example 219, (3-methylnaphthalen-1-y1)(1-pentyl-1H-indol-3-yl)methanone] | 1.78 Fold |
| [5-(3-fluorophenyl)-1-pentyl-1H-pyrrol-3-yl]-1-naphthalenyl-methanone [Example 109] | 2.37 Fold |
| CCCCCn1cc(C(=O)c2cccc3ccccc23)cc1-c1ccccc1 [Example 77, 1-naphthalenyl(1-pentyl-5-phenyl-1H-pyrrol-3-yl)-methanone] | 2.60 Fold |
| (1-ethyl-1H-indol-3-yl)-1-naphthalenyl-methanone [Example 272] | 1.53 Fold |

Same assay, conditions: Homo sapiens, COLO 205, 48 h, MHC-I expression, COLO 205 cells, compounds at 35 μM, 48 hours, flow cytometry (W6/32); read-out: Induction Fold

| Compound | fold induction at 35 µM |
| --- | --- |
| CCCCCn1nc(C(=O)Oc2cccc3cccnc23)c2ccccc21 [Example 258, 1-pentyl-1H-indazole-3-carboxylic acid, 8-quinolinyl ester] | 1.59 |
| Cc1c(C(=O)C2C(C)(C)C2(C)C)c2ccccc2n1CCCCCF [Example 126, (1-(5-fluoropentyl)-2-methyl-1H-indol-3-yl)(2,2,3,3-tetramethylcyclopropyl)methanone] | 2.29 |
| O=C(Oc1cccc2cccnc12)c1cn(Cc2ccc(F)cc2)c2ccccc12 [Example 204, 1-[(4-fluorophenyl)methyl]-1H-indole-3-carboxylic acid, 8-quinolinyl ester] | 1.87 |
| CCCC(F)Cn1cc(C(=O)Oc2cccc3cccnc23)c2ccccc21 (stereo not shown) [Example 83, quinolin-8-yl 1-(2-fluoropentyl)-1H-indole-3-carboxylate] | 2.54 |
| CCCCCCC(C)(C)c1cc(O)c2c(c1)OC(C)(C)[C@@H]1CC=C(CO)C[C@@H]21 [Example 378, 3-(1,1′-dimethylheptyl)-6aR,7,10,10aR-tetrahydro-1-hydroxy-6,6-dimethyl-6H-dibenzo[b,d]pyran-9-methanol] | 0.21 |
| CCCCCn1cc(C(=O)Cc2ccc(Cl)cc2)c2ccccc21 [Example 64, 2-(4-chlorophenyl)-1-(1-pentyl-1H-indol-3-yl)-ethanone] | 2.77 |
| CCCCCn1cc(C(=O)c2ccc(CCC)c3ccccc23)c2ccccc21 [Example 164, (1-pentyl-1H-indol-3-yl)(4-propyl-1-naphthalenyl)-methanone] | 2.03 |
| O=C(Oc1cccc2ccccc12)c1nn(CCCCCF)c2ccccc12 [Example 167, naphthalen-1-yl 1-(5-fluoropentyl)-1H-indazole-3-carboxylate] | 2.01 |
| O=C(Oc1cccc2ncccc12)c1cn(CCCCCF)c2ccccc12 [Example 158, quinolin-5-yl 1-(5-fluoropentyl)-1H-indole-3-carboxylate] | 2.07 |
| CCCCn1cc(C(=O)c2ccc(OC)c3ccccc23)c2ccccc21 [Example 370, (1-butyl-1H-indol-3-yl)(4-methoxy-1-naphthalenyl)-methanone] | 0.82 |
| CCCCCn1cc(-c2nc(CN(CCOC)C(C)C)cs2)c2ccccc21 [Example 369, N-(2-methoxyethyl)-N-(1-methylethyl)-2-(1-pentyl-1H-indol-3-yl)-4-thiazolemethanamine, monohydrochloride] | 0.85 |
| O=C(Oc1ccc2ncccc2c1)c1cn(CCCCCF)c2ccccc12 [Example 30, quinolin-6-yl 1-(5-fluoropentyl)-1H-indole-3-carboxylate] | 3.4 |
| CCCCCn1cc(C(=O)c2cccc3cc(CC)ccc23)c2ccccc21 [Example 275, (6-ethylnaphthalen-1-yl)(1-pentyl-1H-indol-3-yl)methanone] | 1.52 |
| CCCCCn1nc(C(=O)NC(C(N)=O)C(C)(C)C)c2ccccc21 (stereo not shown) [Example 76, N-[1-(aminocarbonyl)-2,2-dimethylpropyl]-1-pentyl-1H-indazole-3-carboxamide] | 2.61 |
| O=C(Oc1ccc2cccnc2c1)c1cn(CC2CCCCC2)c2ccccc12 [Example 47, quinolin-7-yl 1-(cyclohexylmethyl)-1H-indole-3-carboxylate] | 3.01 |
| CCC(F)CCn1cc(C(=O)c2cccc3ccccc23)c2ccccc21 (stereo not shown) [Example 128, (1-(3-fluoropentyl)-1H-indol-3-yl)(naphthalen-1-yl)methanone] | 2.28 |
| CCCCCn1cc(C(=O)Nc2cccc3cccnc23)c2ccccc21 [Example 141, 1-pentyl-N-8-quinolinyl-1H-indole-3-carboxamide] | 2.19 |
| CC(C)(C)Cn1cc(C(=O)c2ccc3ccccc3c2)c2ccccc21 [Example 168, [1-(2,2-dimethylpropyl)-1H-indol-3-yl]-2-naphthalenyl-methanone] | 2.01 |
| CC(C)(NC(=O)c1nn(CC2CCOCC2)c2ccccc12)c1ccccc1 [Example 322, N-(1-methyl-1-phenylethyl)-1-[(tetrahydro-2H-pyran-4-yl)methyl]-1H-indazole-3-carboxamide] | 1.27 |

| Compound | fold induction at 35 µM |
| --- | --- |
| CCCCCn1cc(C(=O)c2cccc3cccc(Br)c23)c2ccccc21 [Example 87, (8-bromonaphthalen-1-yl)(1-pentyl-1H-indol-3-yl)methanone] | 2.51 |
| CCCCCn1cc(C(=O)Nc2cccc3ccccc23)c2ccccc21 [Example 329, N-1-naphthalenyl-1-pentyl-1H-indole-3-carboxamide] | 1.23 |
| CC(C)[C@H](NC(=O)c1nn(Cc2ccc(F)cc2)c2ccccc12)C(N)=O [Example 172, N-[(1S)-1-(aminocarbonyl)-2-methylpropyl]-1-[(4-fluorophenyl)methyl]-1H-indazole-3-carboxamide] | 1.99 |
| COC(=O)[C@@H](NC(=O)c1cn(CCCCCF)c2ccccc12)C(C)C [Example 354, N-[[1-(5-fluoropentyl)-1H-indol-3-yl]carbonyl]-L-valine, methyl ester] | 1.05 |
| O=C(c1cccc2ccccc12)c1nn(CCCCCBr)c2ccccc12 [Example 97, (1-(5-bromopentyl)-1H-indazol-3-yl)(naphthalen-1-yl)methanone] | 2.44 |
| CC(C)[C@H](NC(=O)c1cn(Cc2ccc(F)cc2)c2ccccc12)C(N)=O [Example 237, N-[(1S)-1-(aminocarbonyl)-2-methylpropyl]-1-[(4-fluorophenyl)methyl]-1H-indole-3-carboxamide] | 1.7 |
| CCCCCn1cc(C(=O)c2cccc3c(CC)cccc23)c2ccccc21 [Example 255, (5-ethyl-1-naphthalenyl)(1-pentyl-1H-indol-3-yl)-methanone] | 1.6 |
| O=C(Nc1cccc(-c2ccccc2)c1)OC1CCCCC1 [Example 226, N-[1,1′-biphenyl]-3-yl-carbamic acid, cyclohexyl ester] | 1.74 |
| CCCCCn1cc(C(=O)c2cccc3ccc(OC)cc23)c2ccccc21 [Example 163, (7-methoxy-1-naphthalenyl)(1-pentyl-1H-indol-3-yl)-methanone] | 2.04 |
| COc1ccc(C(=O)c2c(C)n(CCN3CCOCC3)c3cc(Br)ccc23)cc1 [Example 310, [6-bromo-2-methyl-1-[2-(4-morpholinyl)ethyl]-1H-indol-3-yl](4-methoxyphenyl)-methanone] | 1.37 |
| CCCCCn1cc(C(=O)c2cccc3c(C)cccc23)c2ccccc21 [Example 191, (5-methylnaphthalen-1-yl)(1-pentyl-1H-indol-3-yl)methanone] | 1.89 |
| CC1(C)C(C(=O)c2cn(CCCC(F)(F)F)c3ccccc23)C1(C)C [Example 110, (2,2,3,3-tetramethylcyclopropyl)[1-(4,4,4-trifluorobutyl)-1H-indol-3-yl]-methanone] | 2.37 |
| CCC(C)(NC(=O)c1nn(Cc2ccc(F)cc2)c2ccccc12)C(N)=O (single isomer, unassigned) [Example 287, N-(1-amino-2-methyl-1-oxobutan-2-yl)-1-(4-fluorobenzyl)-1H-indazole-3-carboxamide] | 1.45 |
| CC1(C)C(C(=O)c2cn(CCCCCCl)c3ccccc23)C1(C)C [Example 138, (1-(5-chloropentyl)-1H-indol-3-yl)(2,2,3,3-tetramethylcyclopropyl)methanone] | 2.21 |
| NC(=O)[C@H](Cc1ccccc1)NC(=O)c1nn(CCCCCF)c2ccccc12 [Example 227, (S)-N-(1-amino-1-oxo-3-phenylpropan-2-yl)-1-(5-fluoropentyl)-1H-indazole-3-carboxamide] | 1.72 |
| NC(=O)[C@H](Cc1ccccc1)NC(=O)c1cn(CCCCCF)c2ccccc12 [Example 267, (S)-N-(1-amino-1-oxo-3-phenylpropan-2-yl)-1-(5-fluoropentyl)-1H-indole-3-carboxamide] | 1.55 |
| CC(C)[C@H](NC(=O)c1nn(CCCCCCl)c2ccccc12)C(N)=O [Example 170, N-[(1S)-1-(aminocarbonyl)-2-methylpropyl]-1-(5-chloropentyl)-1H-indazole-3-carboxamide] | 2.01 |
| COc1ccc(CC(=O)c2cn(CCC3CCCCC3)c3ccccc23)cc1 [Example 44, 1-(1-(2-cyclohexylethyl)-1H-indol-3-yl)-2-(4-methoxyphenyl)ethanone] | 3.03 |
| CCCCCn1cc(C(=O)c2cccc3c(Cl)cccc23)c2ccccc21 [Example 238, (5-chloronaphthalen-1-yl)(1-pentyl-1H-indol-3-yl)methanone] | 1.7 |

Same assay, conditions: MHC-I expression, COLO 205 cells, compounds at 35 μM, 48 hours, flow cytometry (W6/32)

| Compound | Induction Fold |
| --- | --- |
| CCCC(C)(C)c1ccc2c(c1)OC(C)(C)[C@@H]1CC=C(C)C[C@@H]21 [Example 188, 3-(1,1-dimethylbutyl)-6aR,7,10,10aR-tetrahydro-6,6,9-trimethyl-6H-dibenzo[b,d]pyran] | 1.90 Fold |
